In ChEMBL document CHEMBL5465560, “Selectivity Literature for EUbOPEN Chemogenomic Library” (2024):

Key:
[1] = biological target: T1, Dual specificity mitogen-activated protein kinase kinase 5 (Homo sapiens) (UniProt Q13163); experiment: Selectivity interaction (KinomeScan (DiscoverX)) EUB0000229b MAP2K5; conditions: at 10 µM
T1 sequence (whole entry): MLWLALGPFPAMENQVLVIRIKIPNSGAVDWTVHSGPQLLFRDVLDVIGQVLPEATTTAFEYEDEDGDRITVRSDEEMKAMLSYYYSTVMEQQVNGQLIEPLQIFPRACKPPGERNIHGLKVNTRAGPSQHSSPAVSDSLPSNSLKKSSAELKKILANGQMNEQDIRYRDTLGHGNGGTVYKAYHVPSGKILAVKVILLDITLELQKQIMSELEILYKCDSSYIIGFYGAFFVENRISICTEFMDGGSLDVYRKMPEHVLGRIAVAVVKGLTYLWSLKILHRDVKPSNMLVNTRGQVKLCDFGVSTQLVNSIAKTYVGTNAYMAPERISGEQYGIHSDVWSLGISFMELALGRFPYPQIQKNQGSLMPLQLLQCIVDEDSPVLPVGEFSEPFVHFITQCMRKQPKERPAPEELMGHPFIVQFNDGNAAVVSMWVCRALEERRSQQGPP

[2] = biological target: T2, MAP kinase-activated protein kinase 5 (Homo sapiens) (UniProt Q8IW41); experiment: Selectivity interaction (KinomeScan (DiscoverX)) EUB0000595a MAPKAPK5; conditions: at 10 µM
T2 sequence (whole entry): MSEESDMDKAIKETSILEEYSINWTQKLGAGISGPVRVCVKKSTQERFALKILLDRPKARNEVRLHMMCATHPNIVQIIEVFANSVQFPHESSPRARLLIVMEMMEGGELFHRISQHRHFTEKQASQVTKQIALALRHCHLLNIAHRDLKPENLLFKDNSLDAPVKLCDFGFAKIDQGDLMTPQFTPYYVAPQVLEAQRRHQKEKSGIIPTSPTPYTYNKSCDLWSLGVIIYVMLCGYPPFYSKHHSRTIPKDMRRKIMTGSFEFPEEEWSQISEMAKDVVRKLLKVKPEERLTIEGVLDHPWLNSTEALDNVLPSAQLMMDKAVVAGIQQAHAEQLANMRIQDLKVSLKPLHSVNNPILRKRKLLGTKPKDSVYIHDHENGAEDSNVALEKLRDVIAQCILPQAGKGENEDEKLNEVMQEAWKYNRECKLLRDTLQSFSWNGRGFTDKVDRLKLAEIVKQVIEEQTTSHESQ

[3] = biological target: Ephrin type-A receptor 5 (Homo sapiens) (UniProt P54756); experiment: Selectivity interaction (Kinase panel (Z-LYTE Assay)) EUB0001632a EPHA5; conditions: at 10 µM
Ephrin type-A receptor 5 (Homo sapiens), sequence (P54756 whole entry): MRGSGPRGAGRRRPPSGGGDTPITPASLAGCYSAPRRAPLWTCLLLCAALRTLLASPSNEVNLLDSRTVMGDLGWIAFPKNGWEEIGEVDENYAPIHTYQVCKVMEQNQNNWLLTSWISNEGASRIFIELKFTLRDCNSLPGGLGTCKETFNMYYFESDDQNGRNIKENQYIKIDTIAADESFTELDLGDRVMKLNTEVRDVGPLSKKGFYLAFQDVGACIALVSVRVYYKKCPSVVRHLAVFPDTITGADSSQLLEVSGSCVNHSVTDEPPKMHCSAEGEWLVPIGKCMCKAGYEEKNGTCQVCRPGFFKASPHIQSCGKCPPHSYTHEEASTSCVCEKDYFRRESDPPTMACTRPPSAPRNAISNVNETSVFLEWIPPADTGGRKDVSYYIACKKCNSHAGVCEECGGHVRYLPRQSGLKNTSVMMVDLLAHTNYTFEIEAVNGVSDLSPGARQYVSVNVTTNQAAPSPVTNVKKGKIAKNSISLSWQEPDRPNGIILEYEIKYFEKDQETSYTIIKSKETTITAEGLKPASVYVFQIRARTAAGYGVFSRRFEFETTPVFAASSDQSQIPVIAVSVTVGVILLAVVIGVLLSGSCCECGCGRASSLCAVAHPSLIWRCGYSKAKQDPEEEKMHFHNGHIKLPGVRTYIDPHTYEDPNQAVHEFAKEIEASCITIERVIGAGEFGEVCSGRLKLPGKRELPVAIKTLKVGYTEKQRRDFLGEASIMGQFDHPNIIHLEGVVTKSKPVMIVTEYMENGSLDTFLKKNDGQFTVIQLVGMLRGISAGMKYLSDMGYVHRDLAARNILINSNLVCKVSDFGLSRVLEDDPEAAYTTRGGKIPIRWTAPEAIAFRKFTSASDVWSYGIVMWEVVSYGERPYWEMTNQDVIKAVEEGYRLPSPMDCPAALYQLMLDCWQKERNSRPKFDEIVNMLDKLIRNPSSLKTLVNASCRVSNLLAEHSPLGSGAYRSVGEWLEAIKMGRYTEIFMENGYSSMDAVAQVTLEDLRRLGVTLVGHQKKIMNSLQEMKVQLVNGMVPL

[4] = biological target: Thyrotropin-releasing hormone receptor (Homo sapiens) (UniProt P34981); experiment: Selectivity interaction (Eurofins CEREP Diversity Profile (receptors and ion channels)) EUB0000279b TRH; conditions: at 10 µM
[5] = biological target: Tyrosine-protein kinase JAK2 (Homo sapiens, UniProt O60674); experiment: Selectivity interaction (ProQinase) EUB0000171b JAK2
Tyrosine-protein kinase JAK2, sequence (O60674 whole entry): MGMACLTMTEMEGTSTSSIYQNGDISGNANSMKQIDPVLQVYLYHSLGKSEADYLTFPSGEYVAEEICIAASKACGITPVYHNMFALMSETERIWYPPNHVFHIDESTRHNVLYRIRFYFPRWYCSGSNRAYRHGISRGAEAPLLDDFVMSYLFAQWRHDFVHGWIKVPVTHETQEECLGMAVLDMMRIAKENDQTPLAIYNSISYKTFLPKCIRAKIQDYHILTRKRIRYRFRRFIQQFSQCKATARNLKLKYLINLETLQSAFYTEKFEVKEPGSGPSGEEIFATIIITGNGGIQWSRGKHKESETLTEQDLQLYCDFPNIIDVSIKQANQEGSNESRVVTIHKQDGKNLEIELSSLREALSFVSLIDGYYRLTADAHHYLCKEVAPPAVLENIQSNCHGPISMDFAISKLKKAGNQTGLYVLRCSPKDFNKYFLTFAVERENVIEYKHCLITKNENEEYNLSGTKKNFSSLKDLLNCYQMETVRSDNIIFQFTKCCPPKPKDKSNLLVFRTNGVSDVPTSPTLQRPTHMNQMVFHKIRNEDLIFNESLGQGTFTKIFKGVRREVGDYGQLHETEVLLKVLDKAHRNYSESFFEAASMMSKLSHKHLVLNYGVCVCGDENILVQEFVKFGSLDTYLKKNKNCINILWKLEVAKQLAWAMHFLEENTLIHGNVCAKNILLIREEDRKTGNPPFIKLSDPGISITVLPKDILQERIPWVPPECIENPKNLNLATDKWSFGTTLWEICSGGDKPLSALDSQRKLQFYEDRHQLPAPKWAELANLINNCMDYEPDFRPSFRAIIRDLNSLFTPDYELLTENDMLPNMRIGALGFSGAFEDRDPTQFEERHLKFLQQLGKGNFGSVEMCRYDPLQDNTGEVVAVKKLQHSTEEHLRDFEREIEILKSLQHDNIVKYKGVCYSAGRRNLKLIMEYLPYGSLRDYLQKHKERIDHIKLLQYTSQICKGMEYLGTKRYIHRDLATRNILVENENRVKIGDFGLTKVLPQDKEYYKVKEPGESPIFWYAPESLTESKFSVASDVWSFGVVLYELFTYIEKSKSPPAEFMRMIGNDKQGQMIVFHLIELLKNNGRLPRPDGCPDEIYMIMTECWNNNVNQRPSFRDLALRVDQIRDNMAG

[6] = biological target: Homeodomain-interacting protein kinase 1 (Homo sapiens, UniProt Q86Z02); experiment: Selectivity interaction (SelectScreen profiling (Invitrogen)) EUB0000607a HIPK1; conditions: at 2 µM
[7] = biological target: Ribosomal protein S6 kinase alpha-1 (Homo sapiens, UniProt Q15418); experiment: Selectivity interaction (KinomeScan (DiscoverX)) EUB0000618a RPS6KA1; conditions: at 10 µM
Ribosomal protein S6 kinase alpha-1, sequence (Q15418 whole entry): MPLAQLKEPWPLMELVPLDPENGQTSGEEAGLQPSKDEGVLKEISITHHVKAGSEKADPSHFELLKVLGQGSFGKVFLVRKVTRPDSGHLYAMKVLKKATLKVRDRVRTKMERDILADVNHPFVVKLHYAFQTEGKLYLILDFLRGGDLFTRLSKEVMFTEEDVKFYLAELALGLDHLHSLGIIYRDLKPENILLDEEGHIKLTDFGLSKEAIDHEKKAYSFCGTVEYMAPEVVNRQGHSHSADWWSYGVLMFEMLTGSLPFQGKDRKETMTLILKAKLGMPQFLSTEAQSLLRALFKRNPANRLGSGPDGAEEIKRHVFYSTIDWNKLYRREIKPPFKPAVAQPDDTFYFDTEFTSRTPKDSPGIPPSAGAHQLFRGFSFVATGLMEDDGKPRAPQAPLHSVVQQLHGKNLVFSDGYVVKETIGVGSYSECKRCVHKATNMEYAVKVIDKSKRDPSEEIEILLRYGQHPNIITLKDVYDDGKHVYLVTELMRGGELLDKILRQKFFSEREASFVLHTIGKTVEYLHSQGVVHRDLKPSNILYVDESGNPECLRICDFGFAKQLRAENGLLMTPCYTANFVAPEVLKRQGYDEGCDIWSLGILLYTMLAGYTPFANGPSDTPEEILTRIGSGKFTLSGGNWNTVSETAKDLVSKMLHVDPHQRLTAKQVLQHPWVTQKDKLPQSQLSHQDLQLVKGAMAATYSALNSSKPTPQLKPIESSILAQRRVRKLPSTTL

[8] = biological target: T3, Dual specificity mitogen-activated protein kinase kinase 3 (Homo sapiens) (UniProt P46734); experiment: Selectivity interaction (ActivX KiNativ screen (kinase selectivity in THP-1 cell lysates)) EUB0000639a MAP2K3; assay type: subcellular; conditions: lysate, at 5 µM
T3 sequence (whole entry): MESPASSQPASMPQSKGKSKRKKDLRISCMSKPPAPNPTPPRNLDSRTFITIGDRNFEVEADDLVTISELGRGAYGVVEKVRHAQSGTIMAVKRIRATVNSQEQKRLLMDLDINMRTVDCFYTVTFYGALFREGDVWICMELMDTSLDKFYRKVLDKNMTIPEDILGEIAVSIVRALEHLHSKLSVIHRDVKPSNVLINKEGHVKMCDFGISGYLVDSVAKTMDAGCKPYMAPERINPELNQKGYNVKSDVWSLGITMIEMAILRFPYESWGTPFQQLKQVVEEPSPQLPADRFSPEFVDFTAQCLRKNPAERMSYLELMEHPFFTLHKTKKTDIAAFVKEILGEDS

[9] = biological target: Serine/threonine-protein kinase MARK2 (Homo sapiens) (UniProt Q7KZI7); experiment: Selectivity interaction (ActivX KiNativ screen (kinase selectivity in THP-1 cell lysates)) EUB0000639a MARK2; assay type: subcellular; conditions: lysate, at 0.01 µM
Serine/threonine-protein kinase MARK2 (Homo sapiens), sequence (Q7KZI7 whole entry): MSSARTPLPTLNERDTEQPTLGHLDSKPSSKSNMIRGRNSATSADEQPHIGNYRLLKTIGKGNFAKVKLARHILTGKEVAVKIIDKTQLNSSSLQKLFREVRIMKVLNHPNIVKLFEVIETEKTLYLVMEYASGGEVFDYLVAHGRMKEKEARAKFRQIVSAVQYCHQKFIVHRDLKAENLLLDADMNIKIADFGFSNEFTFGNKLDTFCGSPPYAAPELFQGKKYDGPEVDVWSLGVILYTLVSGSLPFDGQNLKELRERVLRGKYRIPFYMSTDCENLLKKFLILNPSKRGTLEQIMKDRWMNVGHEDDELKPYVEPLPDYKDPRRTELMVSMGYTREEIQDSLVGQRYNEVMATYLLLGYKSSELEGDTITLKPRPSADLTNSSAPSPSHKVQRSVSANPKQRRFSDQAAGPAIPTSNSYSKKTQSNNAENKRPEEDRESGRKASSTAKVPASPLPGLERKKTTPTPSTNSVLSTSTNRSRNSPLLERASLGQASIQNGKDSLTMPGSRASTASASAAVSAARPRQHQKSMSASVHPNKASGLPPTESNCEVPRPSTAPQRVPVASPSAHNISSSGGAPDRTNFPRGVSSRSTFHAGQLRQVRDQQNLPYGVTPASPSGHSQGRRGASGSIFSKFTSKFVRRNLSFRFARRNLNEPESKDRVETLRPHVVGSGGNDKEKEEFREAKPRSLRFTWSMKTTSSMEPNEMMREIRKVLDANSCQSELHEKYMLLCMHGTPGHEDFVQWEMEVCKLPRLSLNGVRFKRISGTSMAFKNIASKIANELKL

[10] = biological target: T4, Serine/threonine-protein kinase 3 (Homo sapiens) (UniProt Q13188); experiment: Selectivity interaction (KinomeScan (DiscoverX)) EUB0000655a STK3; conditions: at 10 µM
T4 sequence (whole entry): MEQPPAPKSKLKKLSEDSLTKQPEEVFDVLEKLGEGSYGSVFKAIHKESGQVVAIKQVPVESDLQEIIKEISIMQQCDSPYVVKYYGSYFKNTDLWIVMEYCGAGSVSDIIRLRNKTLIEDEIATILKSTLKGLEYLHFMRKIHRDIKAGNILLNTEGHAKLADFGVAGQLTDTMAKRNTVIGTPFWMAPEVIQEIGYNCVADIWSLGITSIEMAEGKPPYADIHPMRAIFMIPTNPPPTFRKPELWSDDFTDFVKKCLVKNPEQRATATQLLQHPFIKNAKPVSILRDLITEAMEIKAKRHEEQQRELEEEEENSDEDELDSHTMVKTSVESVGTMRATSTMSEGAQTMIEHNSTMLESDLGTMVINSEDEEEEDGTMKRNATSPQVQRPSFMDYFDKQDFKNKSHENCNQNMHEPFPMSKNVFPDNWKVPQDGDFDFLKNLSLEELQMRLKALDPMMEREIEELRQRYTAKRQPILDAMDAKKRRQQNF

[11] = biological target: Tyrosine-protein kinase JAK1 (Homo sapiens, UniProt P23458); experiment: Selectivity interaction (Ambit KINOMEscan and KiNATiv profiling in Jurkat cells) EUB0000090b JAK1; assay type: cell-based; conditions: at 1 µM
Tyrosine-protein kinase JAK1, sequence (P23458 whole entry): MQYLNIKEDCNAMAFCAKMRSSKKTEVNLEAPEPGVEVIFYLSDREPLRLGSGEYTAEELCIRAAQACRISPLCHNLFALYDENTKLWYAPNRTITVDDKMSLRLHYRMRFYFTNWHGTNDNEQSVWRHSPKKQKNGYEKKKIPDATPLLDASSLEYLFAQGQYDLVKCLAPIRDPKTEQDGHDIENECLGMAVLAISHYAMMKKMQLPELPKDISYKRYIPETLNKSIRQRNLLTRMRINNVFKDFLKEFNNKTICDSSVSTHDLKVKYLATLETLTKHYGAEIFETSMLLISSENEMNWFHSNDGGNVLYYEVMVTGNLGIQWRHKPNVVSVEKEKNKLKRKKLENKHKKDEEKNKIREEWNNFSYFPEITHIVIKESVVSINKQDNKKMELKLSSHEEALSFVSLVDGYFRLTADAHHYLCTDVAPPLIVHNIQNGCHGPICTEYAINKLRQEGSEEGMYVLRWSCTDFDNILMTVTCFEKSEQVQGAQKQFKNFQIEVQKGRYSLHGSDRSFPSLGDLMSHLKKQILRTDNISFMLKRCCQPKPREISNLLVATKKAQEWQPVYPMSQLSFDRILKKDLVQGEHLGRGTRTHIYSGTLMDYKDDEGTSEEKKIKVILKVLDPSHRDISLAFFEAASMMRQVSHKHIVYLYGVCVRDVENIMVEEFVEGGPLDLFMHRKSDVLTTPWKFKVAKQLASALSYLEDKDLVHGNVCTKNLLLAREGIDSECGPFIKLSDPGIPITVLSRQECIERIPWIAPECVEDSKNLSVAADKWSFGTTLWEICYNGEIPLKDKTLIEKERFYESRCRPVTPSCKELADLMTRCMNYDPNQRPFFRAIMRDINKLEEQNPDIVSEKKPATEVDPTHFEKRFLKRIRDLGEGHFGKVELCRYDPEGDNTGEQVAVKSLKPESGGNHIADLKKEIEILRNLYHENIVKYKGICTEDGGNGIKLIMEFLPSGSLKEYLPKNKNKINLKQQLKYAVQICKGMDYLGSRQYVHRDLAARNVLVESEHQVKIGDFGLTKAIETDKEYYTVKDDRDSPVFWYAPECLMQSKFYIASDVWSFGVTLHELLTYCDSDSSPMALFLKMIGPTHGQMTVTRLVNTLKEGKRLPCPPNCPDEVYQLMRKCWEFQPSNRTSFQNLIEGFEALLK

In the case of `COc1cc(N(C)c2ccnc3ccc(C(F)(F)F)cc23)cc(OC)c1OC`, the % binding [1] is reported as 86%.

`COCC(=O)NC/C=C/c1ccc2ncnc(Nc3ccc(Oc4ccc(C)nc4)c(C)c3)c2c1` [CP-724714] showed a % of control [2] of 100%.

For `Cn1cc(-n2cnc3c(NCc4nc5cc(Cl)c(Cl)cc5[nH]4)nc(N4CCOCC4)nc32)cn1`, the % of control [3] was 6.77%.

In the case of `CC(=O)c1cc(-c2ccccc2OCC2CC2)c2ncccn12`, the % of control [4] is reported as 94%.

With `C=CC(=O)Nc1cccc(C(=O)Nc2ccc(Nc3cc(-c4[nH]c(SC)nc4C)ccn3)cc2)c1` the % of control ([5]; at 1 µM) was 80% and the % of control ([5]; at 5 µM) was 72%.

Compound `CNC(=O)Nc1ccc(-c2nc(N3CC4CCC(C3)O4)c3cnn(C4CCC5(CC4)OCCO5)c3n2)cc1` has a % of inhibition [6] of 1%.

With `O[C@H]1CC[C@H](Nc2ncc3nc(Nc4c(F)cc(F)cc4F)n([C@H]4CCOC4)c3n2)CC1` the % of control [7] was 98%.

With `CC[C@@H]1[C@H](F)C(=O)N[C@@H]1COc1nccc2cc(C(N)=O)c(OC)cc12` [ZIMLOVISERTIB] the % of inhibition [8] was -185% and the % of inhibition [9] was 2.3%.

In the case of `CN(C)CCOc1ccc(-c2nc(-c3ccncc3)c(-c3ccc4c(c3)CC/C4=N\O)[nH]2)cc1`, the % of control [10] is reported as 88%.

`CN(C)C/C=C/C(=O)Nc1ccc(C(=O)N2CCCC(Nc3ncc(Cl)c(-c4c[nH]c5ccccc45)n3)C2)cc1` (configuration not stated) was tested, and the % of control [11] was 86%.
